In brackets after ≈: the same amount, converted by molar mass.
How the values were obtained:
Test in all cases: Broth microdilution MIC in CAMHB
Type in all cases: cell-based
E. coli AG100 = details: Escherichia coli; E. coli AG100 (wild-type parent); MHB; read-out: Minimum Inhibitory Concentration, E. coli AG100
In short: (§1)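 CLSI microdilution; CAMHB; inoculum 2-8×10^5 CFU/mL from 3-5 h 37° C culture; 2-fold compound series; 16-20 h, 37° C; MIC = lowest well without visible growth.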

P. aeruginosa ATCC 27853 = details: Pseudomonas aeruginosa, ATCC27853; MHB; read-out: Minimum Inhibitory Concentration, P. aeruginosa ATCC 27853
In short: as §1

[1] = tested on: P. aeruginosa (ΔmexAB-oprM); details: Pseudomonas aeruginosa, read-out: Minimum Inhibitory Concentration, P. aeruginosa ΔmexAB-OprM
In short: as §1

E. coli D22 = details: Escherichia coli; E. coli D22 (hyper-permeable); MHB; read-out: Minimum Inhibitory Concentration, E. coli D22
In short: as §1

[2] = tested on: K. pneumoniae SI-117 producing VIM-1; details: Klebsiella pneumoniae, read-out: Minimum Inhibitory Concentration, K. pneumoniae SI-117
In short: as §1

E. coli AG100A = details: Escherichia coli, read-out: Minimum Inhibitory Concentration, E. coli AG100A
In short: as §1

[3] = tested on: K. pneumoniae UMM producing SHV-5 and KPC-2; details: Klebsiella pneumoniae, read-out: Minimum Inhibitory Concentration, K. pneumoniae UMM
In short: as §1

A. baumannii ATCC 19606 = details: Acinetobacter baumannii, ATCC19606; MHB; read-out: Minimum Inhibitory Concentration, A. baumannii ATCC 19606
In short: as §1

E. coli ATCC 25922 = details: Escherichia coli, ATCC25922; E. coli ATCC 25922; MHB; read-out: Minimum Inhibitory Concentration, E. coli 25922
In short: as §1

E. coli 901C = details: Escherichia coli; E. coli 901C (hyper-permeable); MHB; read-out: Minimum Inhibitory Concentration, E. coli 901C
In short: as §1

P. aeruginosa ATCC 35151 = details: Pseudomonas aeruginosa, ATCC35151; MHB; hyper-permeable strain; read-out: Minimum Inhibitory Concentration, P. aeruginosa ATCC 35151
In short: as §1

[4] = tested on: K. pneumoniae 848844 producing SHV-11 and KPC-2; details: Klebsiella pneumoniae, read-out: Minimum Inhibitory Concentration, K. pneumoniae 848844
In short: as §1

Row | Structure (SMILES) | MIC (E. coli AG100) [µg/mL] | MIC (P. aeruginosa ATCC 27853) [µg/mL] | MIC [1] [µg/mL] | MIC (E. coli D22) [µg/mL] | MIC [2] [µg/mL] | MIC (E. coli AG100A) [µg/mL] | MIC [3] [µg/mL] | MIC (A. baumannii ATCC 19606) [µg/mL] | MIC (E. coli ATCC 25922) [µg/mL] | MIC (E. coli 901C) [µg/mL] | MIC (P. aeruginosa ATCC 35151) [µg/mL] | MIC [4] [µg/mL]
1 | O=C(O)c1cccc2c1OB(O)[C@@H](NC(=O)C(NC(=O)N1CCNC1=O)c1c(F)cc(O)cc1F)C2 (stereo partly drawn) [Example 156, (3R)-3-(2-(2,6-difluoro-4-hydroxyphenyl)-2-(2-oxoimidazolidine-1-carboxamido)acetamido)-2-hydroxy-3,4-dihydro-2H-benzo[e][1,2]oxaborinine-8-carboxylic acid] | 32 to 64 (≈ 63.5 to 127 µM) | > 128 | 8 to 16 (≈ 15.9 to 31.7 µM) | 8 to 16 (≈ 15.9 to 31.7 µM) | 32 to 64 (≈ 63.5 to 127 µM) | 2 to 4 (≈ 3.97 to 7.93 µM) | 32 to 64 (≈ 63.5 to 127 µM) | > 128 | 32 to 64 (≈ 63.5 to 127 µM) | 0.5 to 1 (≈ 0.992 to 1.98 µM) | 0.5 to 1 (≈ 0.992 to 1.98 µM) | 32 to 64 (≈ 63.5 to 127 µM)
2 | CCN1CCN(C(=O)NC(C(=O)N[C@H]2Cc3cccc(C(=O)O)c3OB2O)c2c(F)cc(C(=O)O)cc2F)C(=O)C1=O (stereo partly drawn) [Example 157, (3R)-3-(2-(4-carboxy-2,6-difluorophenyl)-2-(4-ethyl-2,3-dioxopiperazine-1-carboxamido)acetamido)-2-hydroxy-3,4-dihydro-2H-benzo[e][1,2]oxaborinine-8-carboxylic acid] | 32 to 64 (≈ 54.4 to 109 µM) | > 128 | 8 to 16 (≈ 13.6 to 27.2 µM) | 2 to 4 (≈ 3.4 to 6.8 µM) | > 128 | 8 to 16 (≈ 13.6 to 27.2 µM) | 32 to 64 (≈ 54.4 to 109 µM) | > 128 | 32 to 64 (≈ 54.4 to 109 µM) | < 0.25 | 0.5 to 1 (≈ 0.85 to 1.7 µM) | > 128
3 | CCN1CCN(C(=O)NC(C(=O)N[C@H]2Cc3cccc(C(=O)O)c3OB2O)c2cc(F)c(O)c(F)c2)C(=O)C1=O (stereo partly drawn) [Example 160, (3R)-3-(2-(3,5-difluoro-4-hydroxyphenyl)-2-(4-ethyl-2,3-dioxopiperazine-1-carboxamido)acetamido)-2-hydroxy-3,4-dihydro-2H-benzo[e][1,2]oxaborinine-8-carboxylic acid] | 32 to 64 (≈ 57.1 to 114 µM) | > 128 | 2 to 4 (≈ 3.57 to 7.14 µM) | 2 to 4 (≈ 3.57 to 7.14 µM) | > 128 | 2 to 4 (≈ 3.57 to 7.14 µM) | 32 to 64 (≈ 57.1 to 114 µM) | > 128 | 32 to 64 (≈ 57.1 to 114 µM) | < 0.25 | < 0.25 | 32 to 64 (≈ 57.1 to 114 µM)
4 | NCCN1CCN(C(=O)NC(C(=O)N[C@H]2Cc3cccc(C(=O)O)c3OB2O)c2cc(F)c(O)c(Cl)c2)C(=O)C1=O (stereo partly drawn) [Example 163, (3R)-3-(2-(4-(2-aminoethyl)-2,3-dioxopiperazine-1-carboxamido)-2-(3-chloro-5-fluoro-4-hydroxyphenyl)acetamido)-2-hydroxy-3,4-dihydro-2H-benzo[e][1,2]oxaborinine-8-carboxylic acid] | 32 to 64 (≈ 54.1 to 108 µM) | 32 to 64 (≈ 54.1 to 108 µM) | 2 to 4 (≈ 3.38 to 6.76 µM) | 8 to 16 (≈ 13.5 to 27 µM) | > 128 | 2 to 4 (≈ 3.38 to 6.76 µM) | 32 to 64 (≈ 54.1 to 108 µM) | > 128 | 32 to 64 (≈ 54.1 to 108 µM) | 0.5 to 1 (≈ 0.845 to 1.69 µM) | < 0.25 | > 128
5 | CCN1CCN(C(=O)NC(C(=O)N[C@H]2Cc3cccc(C(=O)O)c3OB2O)c2cc(F)c(O)c(Cl)c2)C(=O)C1=O (stereo partly drawn) [Example 164, (3R)-3-(2-(3-chloro-5-fluoro-4-hydroxyphenyl)-2-(4-ethyl-2,3-dioxopiperazine-1-carboxamido)acetamido)-2-hydroxy-3,4-dihydro-2H-benzo[e][1,2]oxaborinine-8-carboxylic acid] | 32 to 64 (≈ 55.5 to 111 µM) | > 128 | 2 to 4 (≈ 3.47 to 6.94 µM) | 2 to 4 (≈ 3.47 to 6.94 µM) | > 128 | 2 to 4 (≈ 3.47 to 6.94 µM) | 32 to 64 (≈ 55.5 to 111 µM) | > 128 | 32 to 64 (≈ 55.5 to 111 µM) | < 0.25 | < 0.25 | > 128
6 | CCN1CCN(C(=O)NC(C(=O)N[C@H]2Cc3cccc(C(=O)O)c3OB2O)c2cc(Cl)c(O)c(Cl)c2)C(=O)C1=O (stereo partly drawn) [Example 171, (3R)-3-(2-(3,5-dichloro-4-hydroxyphenyl)-2-(4-ethyl-2,3-dioxopiperazine-1-carboxamido)acetamido)-2-hydroxy-3,4-dihydro-2H-benzo[e][1,2]oxaborinine-8-carboxylic acid] | 32 to 64 (≈ 53.9 to 108 µM) | > 128 | 2 to 4 (≈ 3.37 to 6.74 µM) | 2 to 4 (≈ 3.37 to 6.74 µM) | > 128 | 2 to 4 (≈ 3.37 to 6.74 µM) | 32 to 64 (≈ 53.9 to 108 µM) | > 128 | 32 to 64 (≈ 53.9 to 108 µM) | < 0.25 | < 0.25 | > 128
7 | CCN1CCN(C(=O)NC(C(=O)N[C@H]2Cc3cccc(C(=O)O)c3OB2O)c2cc(F)c(O)c(F)c2F)C(=O)C1=O (stereo partly drawn) [Example 172, (3R)-3-(2-(4-ethyl-2,3-dioxopiperazine-1-carboxamido)-2-(2,3,5-trifluoro-4-hydroxyphenyl)acetamido)-2-hydroxy-3,4-dihydro-2H-benzo[e][1,2]oxaborinine-8-carboxylic acid] | 8 to 16 (≈ 13.8 to 27.7 µM) | > 128 | 2 to 4 (≈ 3.46 to 6.92 µM) | 2 to 4 (≈ 3.46 to 6.92 µM) | > 128 | 2 to 4 (≈ 3.46 to 6.92 µM) | 32 to 64 (≈ 55.3 to 111 µM) | > 128 | 32 to 64 (≈ 55.3 to 111 µM) | < 0.25 | < 0.25 | > 128
8 | CCN1CCN(C(=O)NC(C(=O)N[C@H]2Cc3cccc(C(=O)O)c3OB2O)c2ccc(O)c(F)c2F)C(=O)C1=O (stereo partly drawn) [Example 173] | 8 to 16 (≈ 14.3 to 28.6 µM) | > 128 | 2 to 4 (≈ 3.57 to 7.14 µM) | 2 to 4 (≈ 3.57 to 7.14 µM) | 32 to 64 (≈ 57.1 to 114 µM) | 2 to 4 (≈ 3.57 to 7.14 µM) | 32 to 64 (≈ 57.1 to 114 µM) | > 128 | 8 to 16 (≈ 14.3 to 28.6 µM) | < 0.25 | 0.5 to 1 (≈ 0.892 to 1.78 µM) | > 128
9 | NCCN1CCN(C(=O)NC(C(=O)N[C@H]2Cc3cccc(C(=O)O)c3OB2O)c2c(F)c(F)c(O)c(F)c2F)C(=O)C1=O (stereo partly drawn) [Example 174, (3R)-3-(2-(4-(2-aminoethyl)-2,3-dioxopiperazine-1-carboxamido)-2-(2,3,5,6-tetrafluoro-4-hydroxyphenyl)acetamido)-2-hydroxy-3,4-dihydro-2H-benzo[e][1,2]oxaborinine-8-carboxylic acid] | 8 to 16 (≈ 13.1 to 26.2 µM) | > 128 | 8 to 16 (≈ 13.1 to 26.2 µM) | 2 to 4 (≈ 3.27 to 6.54 µM) | > 128 | 2 to 4 (≈ 3.27 to 6.54 µM) | 32 to 64 (≈ 52.4 to 105 µM) | > 128 | 32 to 64 (≈ 52.4 to 105 µM) | 0.5 to 1 (≈ 0.818 to 1.64 µM) | 0.5 to 1 (≈ 0.818 to 1.64 µM) | > 128
10 | CCN1CCN(C(=O)NC(C(=O)N[C@H]2Cc3cccc(C(=O)O)c3OB2O)c2c(F)c(F)c(O)c(F)c2F)C(=O)C1=O (stereo partly drawn) [Example 175, (3R)-3-(2-(4-ethyl-2,3-dioxopiperazine-1-carboxamido)-2-(2,3,5,6-tetrafluoro-4-hydroxyphenyl)acetamido)-2-hydroxy-3,4-dihydro-2H-benzo[e][1,2]oxaborinine-8-carboxylic acid] | 8 to 16 (≈ 13.4 to 26.8 µM) | > 128 | 8 to 16 (≈ 13.4 to 26.8 µM) | 2 to 4 (≈ 3.35 to 6.71 µM) | > 128 | 2 to 4 (≈ 3.35 to 6.71 µM) | 32 to 64 (≈ 53.7 to 107 µM) | 32 to 64 (≈ 53.7 to 107 µM) | 32 to 64 (≈ 53.7 to 107 µM) | < 0.25 | 0.5 to 1 (≈ 0.839 to 1.68 µM) | > 128

From patent publication US20230114728A1 (Venatorx Pharmaceuticals, Inc., priority 2019, published 2023)
